Where “and” joins values, the source holds several entries; their conditions need not be identical. Identical values can stand only once.
Columns and labels:
[1] = Glucose-induced membrane lipid peroxidation (LOOH) in lipid vesicles, Example 4; type: biochemical; conditions: 1.0 μM; glucose 200 mg/dL; 96 hours
Method: An experiment was conducted to test the ability of EPA to interfere with the effects of high glucose on membrane lipid peroxidation and organization in vesicles enriched with PUFAs. […] Vitamin E (α-tocopherol) was also purchased from Sigma-Aldrich and prepared in ethanol at 1.0 mM (ε=3.06×10^4 M^−1 cm^−1 at 294 nm) just prior to experimental use. […] All test compounds were further diluted in ethanol or aqueous buffer as needed. Glucose was prepared in saline buffer (0.5 mM HEPES, 154 mM NaCl, pH 7.3) at 11.0 mM (200 mg/dL). CHOD-iodide color reagent (stock) was prepared, with slight modification, as described by from El-Saadani et al. (J. […] Samples were shell-dried under nitrogen gas and placed under vacuum for 1 h to remove residual solvent. […] Lipid suspensions were then vortexed for 3 min at ambient temperature to form MLVs. All MLV samples were subjected to time-dependent autoxidation by incubating at 37° C. in an uncovered, shaking water bath. This method allows lipid peroxidation to occur gradually without requiring the use of exogenous initiators. Small aliquots (5-100 μL) of each sample were removed, immediately following MLV preparation (0 hour) and after exposing samples to oxidative conditions for 72 or 96 hour, and combined with 1.0 mL of activated CHOD-iodide color reagent. Aliquot volume was reduced with each successive time point to ensure that spectrophotometric readings were within the optimal adsorption range. Test samples were covered and incubated in darkness at room temperature for at least 4 hr. Sample absorbances were then measured against a CHOD blank at 365 nm using a Beckman DU-640 spectrophotometer. The CHOD colorimetric assay is based on the oxidation of iodide (I^−) by lipid hydroperoxide (LOOH) to form triiodide (I3^−), the quantity of which is directly proportional to the amount of LOOH present in the lipid sample. The molar absorptivity (I3^−) of I3^− is 2.46×10^4 M^−1 cm^−1 at 365 nm. […]

human sdLDL = test: Copper-induced sdLDL oxidation, TBARS, Example 7; type: biochemical
Method: Samples were prepared at 100 μg/mL sdLDL and incubated with EPA or DHA (10.0 μM each) for 30 minutes prior to initiating lipid oxidation using 10 μM CuSO4. Samples were maintained at 37° C. in a shaking water bath for 1 hour. Lipid oxidation was measured by colorimetric assay of TBARS formation and expressed as molar equivalents of MDA.
An experiment to study the antioxidant effect of EPA in LDL and small dense LDL (“sdLDL”) was performed. LDL and sdLDL were isolated from the plasma of healthy volunteers by iodixanol density gradient ultracentrifugation, and adjusted to a final apolipoprotein concentration of 2 mg/mL. […] Lipid oxidation was initiated with 10 μM CuSO4 and monitored by the colorimetric detection of thiobarbituric acid reactive substances (TBARS) for 1 hr. Vitamin E was also incubated with sample aliquots as a positive control.

HUVECs = test: NO and ONOO- release from HUVECs exposed to oxLDL (nanosensors), Example 8; type: cell-based, human; conditions: ECs exposed to oxLDL
Method: Human umbilical vein endothelial cells (HUVECs) were isolated into primary cultures from female donors by Clonetics (San Diego, Calif.) and purchased as proliferating cells. All cell culture donors were healthy, with no pregnancy or prenatal complications. […] The confluent cells (4 to 5×10^5 cells/35 mm dish) were placed with minimum essential medium containing 3 mM L-arginine and 0.1 mM BH4 [(6R)-5,6,7,8-tetrahydrobiopterin]. Before experimental use, the cells (from second or third passage) were rinsed twice with Tyrode-HEPES buffer with 1.8 mM CaCl2. […]
Oxidation was monitored by the use of measurements of TBARS. […] TBARS concentration was determined as malondialdehyde (MDA) equivalents with the use of an MDA standard curve. […]
The amperometric method (with a response time of 0.1 ms) provides a quantitative signal (current) that is directly proportional to changes (from basal levels) in NO or ONOO^− concentration. […] Basal NO or ONOO^− levels were measured by differential pulse voltammetry in separate experiments. […]
Data are presented as mean±S.D. for (N) separate samples or experiments. Differences between groups were analyzed using the two-tailed, Student t-test (for comparisons between only two groups) or ANOVA followed by Student-Newman-Keuls multiple comparisons post-hoc analysis (for comparisons between three or more groups). […]

[2] = X-ray diffraction of membrane cholesterol domains in POPC/cholesterol model membranes, Example 9; conditions: C/P 1.5:1
Method: The fatty acid stock solutions were stored at −20° C. until use.
Samples were shell-dried under nitrogen gas and placed under vacuum for 3 hours to remove residual solvent at room temperature. After desiccation, each sample was resuspended in saline buffer (0.5 mM HEPES, 154 mM NaCl, pH 7.3) to yield a final phospholipid concentration of 2.5 mg/mL. Lipid suspensions were then vortexed for 3 minutes at ambient temperature to form MLVs.
Briefly, a 100 μL aliquot of each MLV preparation (containing 250 μg MLV) was transferred to a Lucite® sedimentation cell fitted with an aluminum foil substrate designed to collect MLVs into a single membrane pellet upon centrifugation.
After centrifugal orientation, sample supernatants were aspirated and aluminum foil substrates, each supporting a single membrane pellet, were removed from the sedimentation cells. Sample pellets were dried for 5-10 minutes at ambient conditions, mounted onto curved glass supports, and placed in hermetically-sealed, brass or glass containers (for immediate analysis or temporary storage, respectively). All x-ray diffraction experiments were conducted at 20° C., 74% relative humidity. The latter was established by exposing membrane samples to saturated solutions of L-(+)-tartaric acid (K2C4H4O6.½H2O) for at least 1 hour prior to experimental analysis. […]

human LDL = test: Copper-induced unfractionated LDL oxidation, TBARS, Example 7; type: biochemical; conditions: beginning at 1.0 μM; 1 hour
[3] = tested on: rat renal glomerular endothelial cells; test: NO and ONOO- release ex vivo from glomerular endothelial cells exposed to oxLDL and high glucose, Example 13; type: cell-based; conditions: 10.0 μM, 1 hr; oxLDL 11 mg/dL and glucose 300 mg/dL; vs vehicle
Method: Healthy male Wistar Kyoto (WKY) rats, aged 7-9 weeks and weighing 250±20 g, were obtained from inbred colonies (National Institutes of Health, Bethesda, Md.). Animals were housed in a controlled environment that provided food and water ad libitum prior to the study. […] Animals were sacrificed and tissue samples obtained immediately for experimentation. All procedures were conducted in accordance with standard Institutional Animal Care and Use Committee guidelines and conformed to the Guide for the Care and Use of Laboratory Animals published by the US National Institutes of Health.
EPA and DHA were purchased from Sigma-Aldrich (St. Louis, Mo.) and solubilized in ethanol to 1.0 mM under nitrogen atmosphere. […]
LDL was oxidized according to the methods of Huber et al. 16 Briefly, the purified LDL fraction was dialyzed against Tris/NaCl Buffer (50 mM Tris in 0.15 M NaCl, pH 8.0) to remove EDTA. […] LDL oxidation was initiated with 20 μM CuSO4 and monitored spectrophotometrically (234 nm) over a period of 24 hours until complete. […]
Each analyte was measured from amperograms and standard calibration curves collected under maximum current. […] Changes in current (proportional to the molar concentrations of NO or ONOO^− released) were monitored continuously immediately following Cal stimulation. […]

SMILES | antioxidant effects, separate treatments [1] | inhibition of sdLDL oxidation as compared to vehicle or DHA (human sdLDL; 10.0 μM, after 4 hours) | inhibition of sdLDL oxidation (TBARS formation) vs vehicle (human sdLDL; each agent 10 μM, 1 hr) | increase in NO release as compared to vehicle (HUVECs) [%] | Relative Chotesterol Domain Peak Intensity ([2]; EPA D/P mole ratio 1:60) | Relative Chotesterol Domain Peak Intensity ([2]; EPA D/P mole ratio 1:90) | inhibition of sdLDL oxidation vs vehicle (human sdLDL; ATM at the highest dose, 1 hr) [%] | inhibition of unfractionated LDL oxidation, dose dependence (human LDL) | reduction in ONOO^− release [3] [%]
CC/C=C\C/C=C\C/C=C\C/C=C\C/C=C\CCCC(=O)O [EPA, cis-5,8,11,14,17-eicosapentaenoic acid] | separate and potent antioxidant effects | significantly inhibited sdLDL oxidation | 93±2% and 92±8% | 45 | 29.5 ± 10.9 | 36.0 ± 3.1 | – | – | –
CC(C)c1c(C(=O)Nc2ccccc2O)c(-c2ccccc2)c(-c2ccc(F)cc2)n1CC[C@@H](O)C[C@@H](O)CC(=O)O [ATM, Ortho (o)-hydroxy atorvastatin metabolite] | separate and potent antioxidant effects | – | – | – | – | – | 90±2 | significant and dose-dependent inhibition of unfractionated LDL oxidation | 25

Reference: patent US10842765B2, “Methods of reducing or preventing oxidation of small dense ldl or membrane polyunsaturated fatty acids” (Amarin Pharmaceuticals Ireland Limited, priority 2016, dated 2020)
